# Experimental data taken from ChEMBL document CHEMBL5537177, “Discovery of Potent Antimalarial Type II Kinase Inhibitors with Selectivity over Human Kinases” (J Med Chem, 2024).
# Active and inactive are the calls of the source. The calls are words filed in the database; no cut-off is given here.
# Key:
# Plasmodium falciparum [1] = test: Resistance index, ratio of EC50 for multidrug-resistant Plasmodium falciparum Dd2 at ring stage infected in A+ erythrocytes to EC50 for drug-sensitive Plasmodium falciparum 3D7 at ring stage infected in A+ erythrocytes; assay type: organism-based; settings: human
# [2] = Selectivity index, ratio of EC50 for human MCF7 cells to EC50 for multidrug-resistant Plasmodium falciparum Dd2 at ring stage infected in A+ erythrocytes; assay type: toxicity, cell-based; settings: read-out: Ratio EC50
# [3] = Cmax in mouse at 2 mg/kg, iv; assay type: ADME, organism-based; settings: in vivo
# [4] = AUC (last) in mouse at 2 mg/kg, iv; assay type: ADME, organism-based; settings: in vivo
# [5] = Clearance in mouse at 2 mg/kg, iv; assay type: ADME, organism-based; settings: in vivo
# [6] = AUC (last) in mouse at 10 mg/kg, po; assay type: ADME, organism-based; settings: in vivo
# [7] = Clearance in mouse at 10 mg/kg, po; assay type: ADME, organism-based; settings: in vivo
# Plasmodium berghei = test: Antimalarial activity against […] Plasmodium berghei sporozoites expressing GFP-Luc SMcon infected in Swiss Webster mouse assessed as reduction in parasitemia at 15 mg/kg, iv pretreated for 6 hrs followed by parasite infection measured after 2 to 6 days post-infection by IVIS imaging analysis; assay type: functional, organism-based; settings: time 2.25-6.25 day
# Plasmodium falciparum [8] = test: Parasiticidal activity against asynchronous blood-stage Plasmodium falciparum Dd2 at 10 times EC50 treated for 12 hrs followed by compound washout and measured for 4 days by flow cytometry; assay type: functional, organism-based
# Plasmodium falciparum [9] = test: Antimalarial activity against synchronous blood-stage Plasmodium falciparum 3D7 assessed as duration of lag phase at 10 times EC50 treated every 24 hrs for 120 hrs followed by compound washout and subsequent addition of RBCs measured after 21 days by parasite reduction ratio assay; assay type: functional
# Plasmodium falciparum [10] = test: Antimalarial activity against synchronized Plasmodium falciparum Dd2 assessed as absence of rightward shift of YOYO-1 peak at 5 times EC50 treated 6 hrs post-invasion measured after 54 hrs post-invasion by flow cytometry; assay type: functional, organism-based; settings: time 48.0 hrs
# Plasmodium falciparum [11] = test: Antimalarial activity against synchronized Plasmodium falciparum Dd2 assessed as parasite growth inhibition at ring stage at 5 times EC50 treated 6 hrs post-invasion measured after 54 hrs post-invasion by Geimsa staining based microscopy; assay type: functional, organism-based; settings: time 48.0 hrs
# Plasmodium falciparum [12] = test: Antimalarial activity against synchronized Plasmodium falciparum 3D7 assessed as reduction in parasite growth at early asexual stage treated 6 hrs post-invasion measured after 72 hrs by SYBR green I dye based microscopy; assay type: functional, organism-based
# Plasmodium falciparum [13] = test: (§1) Antimalarial activity against artemisinin-sensitive synchronized early ring stage Plasmodium falciparum IPC 5188 (MRA-1239) clinical isolate assessed as decrease in parasite survival at ring stage at 10 times EC50 treated for 6 hrs followed by compound removal measured after 72 hrs by geimsa staining based microscopy; assay type: functional, organism-based
# Plasmodium falciparum [14] = test: as §1, with “artemisinin-resistant” for “artemisinin-sensitive”, “5202 (MRA-1240)” for “5188 (MRA-1239)”; assay type: functional, organism-based
# Plasmodium falciparum [15] = test: Antimalarial activity against synchronized early ring stage Plasmodium falciparum 3D7 (MRA-152) clinical isolate assessed as decrease in parasite survival at ring stage at 10 times EC50 treated for 6 hrs followed by compound removal measured after 72 hrs by geimsa staining based microscopy; assay type: functional, organism-based
# Plasmodium falciparum [16] = test: as §1, with “48” for “6”; assay type: functional, organism-based
# Plasmodium falciparum [17] = test: as §1, with “artemisinin-resistant” for “artemisinin-sensitive”, “5202 (MRA-1240)” for “5188 (MRA-1239)”, “48” for “6”; assay type: functional, organism-based
# Plasmodium falciparum [18] = test: Antimalarial activity against synchronized early ring stage Plasmodium falciparum 3D7 (MRA-152) clinical isolate assessed as decrease in parasite survival at ring stage at 10 times EC50 treated for 48 hrs followed by compound removal measured after 72 hrs by geimsa staining based microscopy; assay type: functional, organism-based
# Plasmodium falciparum [19] = test: (§2) Antimalarial activity against synchronized early ring stage Plasmodium falciparum 3D7 (MRA-152) clinical isolate assessed as decrease in parasite survival at ring stage at 10 times EC50 treated for 6 to 48 hrs followed by compound removal measured after 72 hrs by geimsa staining based microscopy; assay type: functional, organism-based
# Plasmodium falciparum [20] = test: as §1, with “artemisinin/piperaquine-sensitive” for “artemisinin-sensitive”, “6 to 48” for “6”; assay type: functional, organism-based
# Plasmodium falciparum [21] = test: as §2, with “against artemisinin-resistant/piperaquine-sensitive” for “against”, “IPC 5202 (MRA-1240)” for “3D7 (MRA-152)”; assay type: functional, organism-based
# Plasmodium falciparum [22] = test: Antimalarial activity against patient-derived ring-stage Plasmodium falciparum clinical isolate from Patongo town of Uganda infected in O+ RBCs assessed as reduction in parasitemia incubated for 72 hrs by SYBR green I dye based analysis; assay type: functional, organism-based, RBC; settings: Erythrocyte
# Plasmodium falciparum [23] = test: Antimalarial activity against Plasmodium falciparum harboring CARL I1139K mutation assessed as reduction in parasitemia incubated for 72 hrs by SYBR green I dye based analysis; assay type: functional, organism-based
# Plasmodium falciparum [24] = test: Antimalarial activity against Plasmodium falciparum harboring PI4K S1320L mutation assessed as reduction in parasitemia incubated for 72 hrs by SYBR green I dye based analysis; assay type: functional, organism-based
# Plasmodium falciparum [25] = test: Antimalarial activity in ring-stage Plasmodium falciparum Dd2-B2 infected in human O+ erythrocytes assessed as reduction in parasitemia incubated for 72 hrs by SYBR Green I/ MitoTracker Deep Red dye based flow cytometry; assay type: functional, organism-based; settings: Dd2-B2, 72 h
# Plasmodium falciparum [26] = test: microbe, parasite or virus in culture; settings: Dd2, 72 h
# Description: Antiplasmodial activity against asynchronous Plasmodium falciparum Dd2 assessed as parasite growth reduction incubated for 72 hrs by SYBR Green I dye based analysis
# Plasmodium falciparum [27] = test: microbe, parasite or virus in culture; settings: Dd2, 72 h; remark: listed apart in the source
# Description: Antimalarial activity against wild-type Plasmodium falciparum Dd2 assessed as reduction in parasitemia incubated for 72 hrs by SYBR green I dye based analysis
smiles,measurement,setting,value
CCN1CCN(Cc2ccc(NC(=O)c3cc(Cl)cc(NC(=O)c4cncc(-c5cccs5)c4)c3)cc2C(F)(F)F)CC1,Ratio EC50,Plasmodium falciparum [1],1.4
same,selectivity ratio,[2],61
same,Cmax,[3],11100 ng/mL
same,AUC(0-t),[4],6860 ng·h/mL
same,clearance,[5],4.3 mL/min/kg
same,AUC(0-t),[6],866 ng·h/mL
same,CL/F,[7],109 mL/min/kg
same,Activity,Plasmodium berghei,Active
same,Activity,Plasmodium falciparum [8],Active
same,Time,Plasmodium falciparum [9],0 h
same,Activity,Plasmodium falciparum [10],Active
same,inhibition,Plasmodium falciparum [11],Active
same,EC50,Plasmodium falciparum [12],29.6 nM
same,Activity,Plasmodium falciparum [13],inactive
same,Activity,Plasmodium falciparum [14],inactive
same,Activity,Plasmodium falciparum [15],inactive
same,Activity,Plasmodium falciparum [16],Active
same,Activity,Plasmodium falciparum [17],Active
same,Activity,Plasmodium falciparum [18],Active
same,EC50,Plasmodium falciparum [19],61.1 nM
same,EC50,Plasmodium falciparum [20],73.7 nM
same,EC50,Plasmodium falciparum [21],72.2 nM
same,EC50,Plasmodium falciparum [22],9.2 nM
same,EC50,Plasmodium falciparum [23],65.8 nM
same,EC50,Plasmodium falciparum [24],59.2 nM
same,EC50,Plasmodium falciparum [25],40.6 nM
same,EC50,Plasmodium falciparum [26],80 nM
same,EC50,Plasmodium falciparum [27],51.2 nM
